According to patent US20050239873A1 (priority 1999, published 2005):

Tests used:
[1] = tested on: RPMI-8226 myeloma cells; assay: [3H]-thymidine incorporation assay; type: cell-based, human
Experimental: (§1) RPMI 8226 cells were grown in 96 well plates for 24 h prior to addition of 2-methoxy Antimycins. Antimycin stocks in DMSO were serially diluted in RPMI media. Cells were incubated for 48 h with compounds at final compound concentrations ranging from 10^−4 to 10^−8 M. MTT assays were performed in quadruplicate and percent growth inhibitions were calculated as (A570 (control cells)—A570 (treated cells))/A570 (control cells). The GI50 was extrapolated from semi-log plots of the dose response for each compound. […] After 72 h drug exposures, 1 μCi/ml [^3H]-thymidine was added to wells. Cells were incubated for an additional 24 h, and then transferred to GF/C filter plates (Packard) using a plate washer. Filters were dried, added to scintillant, and counted in a TopCount scintillation counter (Packard). Drug response was expressed as the percentage of vehicle-treated controls, and each value shown as the average of three determinations.

[2] = tested on: NCI-H929 myeloma cells; assay: [3H]-thymidine incorporation assay; type: cell-based, human; conditions: 72 h drug exposure
Experimental: as §1

[3] = tested on: U266 myeloma cells; assay: [3H]-thymidine incorporation assay; type: cell-based, human; conditions: 72 h drug exposure
Experimental: as §1

[4] = tested on: NOD/SCID mice; assay: In vivo toxicity, intravenous dosing
[5] = tested on: RPMI-8226 human myeloma xenografts in NOD/SCID mice; assay: RPMI-8226 tumor xenografts; type: in vivo, mouse
Experimental: Six to nine-week old Nod/Les2 Scid/J mice were inoculated with 3×10^7 RPMI-8226 cells by interscapular subcutaneous injection. Mice were maintained under specific pathogen-free conditions. Palpable tumor nodules were measured in two dimensions with calipers and tumor volumes calculated in mm^3 as (length×width^2)/2. Blood samples were collected by retro-orbital bleed for human light chain measurements by ELISA with lambda-specific antibody and horseradish peroxidase detection (BD Biosciences). Animals were sacrificed by halothane inhalation, and histologic examination of tumors and internal organs was performed. All experiments were approved by the Fred Hutchison Cancer Research Center Institutional Animal Care and Use Committee.
2-OMe antimycin A1 was synthesized from antimycin A1 (Sigma) (comprising about 80% antimycin Ala and about 20% A1b) and dissolved in phosphate-buffered saline with 20% Cremaphor, 25% ethanol (3 mg/ml) for parenteral administration by tail vein injection in a total volume of 100 μl. Control mice received injections of Cremaphor/ethanol vehicle.
Tissues were fixed in 10% buffered formalin, embedded in paraffin, sectioned and stained with hematoxylin and eosin. TUNEL staining was performed using 0.3 units/ml terminal deoxynucleotidyl transferase and biotinylated dATP with development by avidin-biotin peroxidase method. BCl-xL immunohistochemistry was performed using anti-Bcl-xL antibody (BD Biosciences) followed by biotinylated secondary antibody and peroxidase-labeled ABC reagent (Vector, Burlingame Calif.).
To determine whether 2-OMeA, has anti-tumor activity in vivo, a total of 12 NOD/SCID mice in three experiments were inoculated with 3×10^7 RPMI-8226 human myeloma cells by interscapular subcutaneous injection. […] In total, six mice received three intravenous doses of 10 mg/kg 2-OMeA1 on alternate days starting on day 6. Six control mice received injections of Cremaphor/ethanol vehicle without drug.

[6] = tested on: plasma proteins; assay: Binding to plasma proteins (ultrafiltration); type: in vitro ADME, mouse; conditions: presence of NaF+EDTA, 1000 ng/ml
Experimental: (§2) Solutions of 2-OMe antimycin A3 were diluted with plasma (dog or human) containing NaF+EDTA to final concentrations of 1.0 or 0.2 μg/ml. Controls were diluted with water to the same final concentrations. These preparations were incubated at 37° C. for 20 min, at which time portions were taken and placed in the sample reservoirs of Amicon Centrifree® ultrafiltration systems (Millipore Co., Bedford, Mass.). At 37° C., the filter systems were centrifuged until the reservoirs were dry. From each filtrate, portions were taken for analysis by HPLC. The amounts present were designated as “free drug” (F). The concentrations of the unfiltered solutions were also determined by triplicate analyses. This amount represented the “total drug” concentration (T). The percentage of 2-OMe antimycin A3 bound to plasma proteins was calculated by the following formula: % bound=((T−F)/T)×100

[7] = Stability in plasma; type: in vitro ADME, mouse; conditions: for stability: 37° C., 60 min
Experimental: (§3) For analysis of samples, two volumes of cold methanol-acetonitrile (50:50, v/v) were added to portions of plasma, culture medium, or cell extract. The preparations were mixed and then centrifuged to obtain clear supernatants, which were dried at room temperature by compressed air. The residues were dissolved in the mobile phase, and a portion was injected onto the HPLC column.
(§4) The HPLC equipment consisted of a Hewlett Packard 1050 ChemStation with a fluorescence detector (Agilent 100 series). […] The mobile phase was methanol:ammonium acetate buffer (87:13 v/v; 0.2 M; pH 5.8, adjusted with HCl). The flow rate was 1 ml/min. The column elute was monitored fluorometrically at an excitation wavelength of 232 nm and an emission wavelength of 418 nm. The amounts of test compounds present in samples were determined from the peak areas.
(§5) Samples of mouse, rat, dog, and human plasma were incubated at 37° C. with and without addition of NaF (2.5 mg/ml) and EDTA (1 mg/ml). To these preparations, 2-OMe antimycin A1, 2-OMe antimcyin A2, 2-OMe antimycin A3, or 2-OMe antimycin A5, dissolved in methanol, was added to final concentrations of 500 ng/ml. Portions of plasma, taken at selected times after addition of the 2-OMe antimycin analog, were extracted and analyzed.
Similarly, the stability of 2-OMe antimycin A1, 2-OMe antimycin A2, […] in the plasma from mice and humans was evaluated at −80° C. From these preparations, portions were analyzed immediately; other portions were stored at -80° C. and analyzed after 1, 2, and 4 weeks.

[8] = tested on: plasma proteins; assay: Binding to plasma proteins (ultrafiltration); type: in vitro ADME, rat; conditions: presence of NaF+EDTA, 1000 ng/ml
[9] = Stability in plasma; type: in vitro ADME, dog; conditions: 37° C., 60 min; for stability: presence of NaF/EDTA
Experimental: as §3, §4, §5

[10] = tested on: plasma proteins; assay: Binding to plasma proteins (ultrafiltration); type: in vitro ADME, dog; conditions: presence of NaF+EDTA, 1000 ng/ml
Experimental: as §2
Similar experiments were performed for 2-OMe antimycin A3 in dog or rat plasma in the absence of NaF/EDTA.

[11] = Stability in plasma; type: in vitro ADME, rat; conditions: 37° C., 60 min, presence of NaF/EDTA
Experimental: as §3, §4, §5

[12] = molecular target: Bcl-xLΔC20 (Homo sapiens, UniProt Q07817); assay: Calcein leakage from large unilamellar vesicles (pore formation); type: biochemical
Chain of Bcl-xLΔC20 (Q07817 1-213 limits assumed, stated change not applied): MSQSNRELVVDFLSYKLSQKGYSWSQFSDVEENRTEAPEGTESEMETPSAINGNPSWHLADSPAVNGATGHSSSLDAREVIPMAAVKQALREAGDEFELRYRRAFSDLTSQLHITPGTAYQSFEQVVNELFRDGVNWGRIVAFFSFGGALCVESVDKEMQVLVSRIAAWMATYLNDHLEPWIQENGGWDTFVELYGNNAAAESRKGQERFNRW
Experimental: In this example the ability of antimycin A to prevent pore formation by BCl-xL was tested. […] Recombinant human BCl-xL lacking the C-terminal 20-residue membrane anchor sequence, Bcl-xLΔC20, forms pores in large unilamellar vesicles. A reporter, calcein, can leak out of the vesicles through these pores.
Briefly, a dry film of lipid was resuspended in an aqueous solution containing 40 mM calcein (Molecular Probes, Eugene, Oreg.), 25 mM KCl and 10 mM HEPES (pH 7.0). After 5 freeze-thaw cycles, the lipidic solution was extruded through 2 Nucleopore filters, 0.1 μm pore diameter. […] The size of the vesicle suspension was measured by a Coulter N4 Plus-Sizer to confirm that the mean diameter of the vesicle sample was close to the expected size (100 nm). The osmolalities of all solutions were measured in a cryoscopic osmometer (Wescor Inc., Logan, Utah) and adjusted to 0.21 Osmol/kg by the addition of sodium chloride, as necessary.
Calcein leakage was determined by adding 2-4 μg of purified Bcl-xLΔC20 (5 μg/ml, 161 nM) to a solution of 100 mM NaCl, 10 mM HEPES (pH 5.0) containing the large unilamellar vesicles (50 μM final lipid concentration) described above. Changes in the fluorescence intensity were measured in an Aminco-SLM spectrofluorimeter. […] The 100% fluorescence level for leakage was obtained by detergent lysis (0.1% Triton X-100) of the vesicles containing entrapped calcein.

Molecule: 2-methoxy antimycin A [2-OMeA]
- IC50 ([1]; 72 h drug exposure): 15 µg/mL
- IC50 relative to antimycin A ([1]; RPMI-8226, U266 and NCI-H929): 100 fold
- IC50 [2]: 10 µg/mL
- IC50 [3]: 5 µg/mL
- mice died ([4]; intravenous 20 mg/kg): Three of six
- treated mice with regression of tumor nodules ([5]; second round, 10 mg/kg alternate days, days 26 through 31): 6/6

Molecule: CCCCCC[C@H]1C(=O)O[C@H](C)[C@H](NC(=O)c2cccc(NC=O)c2OC)C(=O)O[C@@H](C)[C@@H]1OC(=O)CC(C)C [2-OMeA1, 2-methoxy antimycin A1]
- histologic examinations of normal tissues ([4]; 10 mg/kg): No cellular injury or inflammation
- reformation of antimycin A1 in plasma ([4]; preliminary LC/MS analyses of plasma after administration): have not demonstrated reformation
- mice survived without apparent toxicity ([4]; three intravenous doses of 10 mg/kg on alternate days): 6 of 6
- adverse effects ([4]; treated tumor-bearing mice, 10 mg/kg): No adverse effects
- Protein binding, Mouse [6]: 99.0%
- stability ([7]; presence of NaF/EDTA): substantially stable
- amounts remaining after 4 weeks ([7]; -80° C., presence of NaF/EDTA): 96%
- amounts remaining after 4 weeks ([7]; −80° C., absence of NaF/EDTA): 78%
- Protein binding, Rat [8]: >99.9%
- added amount remaining ([9]; absence of NaF/EDTA, 500 ng/ml): 61%
- stability [9]: unstable
- Protein binding, Dog [10]: 99.8%
- stability [11]: substantially stable
- time to regression of early and large nodules ([5]; 10 mg/kg intravenously): within the first week
- tumor sections ([5]; 24 and 48 h after a single 10 mg/kg intravenous treatment): widespread apoptosis
- average reduction of serum levels of human light chain ([5]; after the third injection, 10 mg/kg intravenous on alternate days): 87%
- mice with tumor regression during treatment ([5]; three intravenous doses of 10 mg/kg on alternate days starting on day 6): Five of six
- effect of delayed treatment on tumor nodules ([5]; two tumor-bearing control mice, 10 mg/kg on days 43, 46 and 48): regression of tumor nodules

Molecule: CCCC[C@H]1C(=O)OC(C)[C@H](NC(=O)c2cccc(NC=O)c2OC)C(=O)O[C@@H](C)C1OC(=O)CC(C)C (stereo partly shown) [2-OMeA3, Antimycin A3 methyl ether]
- inhibition of Bcl-xL pore formation, liposome permeability assay [12]: almost as well as antimycin A3
- Protein binding, Mouse [6]: 99.1%
- stability ([7]; presence of NaF/EDTA): notable decreases in concentration
- amounts remaining after 4 weeks ([7]; -80° C., presence of NaF/EDTA): 90%
- amounts remaining after 4 weeks ([7]; −80° C., absence of NaF/EDTA): 45%
- Protein binding, Rat [8]: 99.8%
- stability [9]: largely stable
- Protein binding, Dog [10]: 99.3%
- stability [11]: largely stable

Molecule: antimycin A
- Bcl-xL pore-forming activity (calcein leakage) ([12]; 12 μM): completely blocked
- 50% growth inhibition (GI50) ([1]; 72 h drug exposure): 0.1 µg/mL
- 50% growth inhibition (GI50) [2]: 0.2 µg/mL
- 50% growth inhibition (GI50) [3]: 0.05 µg/mL
